# Test results from patent US6849732B2, “Metalloproteinase inhibitors, pharmaceutical compositions containing them and their pharmaceutical uses, and methods and intermediates useful for their preparation” (Agouron Pharmaceuticals, Inc., priority 1995, dated 2005).
# Counter-ions that a name gives are not always drawn. Like-named read-outs stand apart in the source and are kept apart here.
# Columns and labels:
# Assay type in all cases: biochemical
# matrilysin (Matr.) = molecular target: T1, matrilysin (Matr.) (Homo sapiens, UniProt P09237); experiment: MCA fluorogenic enzyme assay, competitive inhibition analysis (Ki,app), matrilysin; settings: MCA peptide substrate, 37° C., pH 7.5, read-out: Enzyme Inhibition Constants (K1) Matr.
# T1 sequence (P09237 95-267): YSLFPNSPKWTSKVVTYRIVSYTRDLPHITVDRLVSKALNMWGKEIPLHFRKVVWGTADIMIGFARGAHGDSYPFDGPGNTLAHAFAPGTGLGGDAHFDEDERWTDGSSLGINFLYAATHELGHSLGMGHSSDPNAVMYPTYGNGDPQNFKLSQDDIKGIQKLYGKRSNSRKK
# Description: Stromelysin enzymatic activity was measured using a modified version of a resonance energy transfer fluorogenic assay as described in FEBS, vol. 296(3), p. 263 (1992), the disclosure of which is incorporated herein by reference. The MCA-peptide substrate is shown below. The fluorescent MCA group is quenched by resonance energy transfer to the 2,4-dinitrophenyl group. Matrix metalloproteinases cleave this substrate at the Gly-Leu bond. Cleavage results in the loss of energy transfer and a large increase in fluorescence of the MCA group. [drawing 56] 7-methoxycoumarin-4-yl-acetyl-pro-leu-gly-leu-3-(2,4-dinitrophenyl)-L-2,3-diaminoproprionyl-ala-arg-NH2
# The MCA assay was performed at 37° C. in buffer containing 50 mM Tricine (pH 7.5), 10 mM CaCl2, 200 mM NaCl, and 1% DMSO with the following concentrations of matrix metalloproteinases: 1.4 nM stromelyin, 0.063 nM matrilysin, and 0.030 nM gelatinase A. The concentration of MCA substrate was 10 or 20 μM in a final volume of 1.6 mL. Fluorescence data was collected with Perkin-Elmer LS-5B and LS-5B spectrofluorimeters with λexcitation=328 nm and λemission=393 nm. Spectrofluorimeters were interfaced with IBM-compatible microcomputer systems.
# The Km for the MCA peptide substrate with the matrix metalloproteinases is quite high and exceeds its solubility under assay conditions. Consequently, the apparent Ki (Ki,app) was determined to describe the strength of inhibition. However, in this case, Ki,app would be essentially equal to Ki since [S]<<Km. For the determination of Ki,app, the concentration of the inhibitor was varied at a constant and low concentration of substrate and the steady-state rates of fluorescence change determined. In most cases absorptive quench due to the presence of ligand was not observed. For slow-binding inhibitors, onset of inhibition curves were collected for at least 45 minutes so that equilibrium was established. Steady-state rates of fluorescence change were obtained by fitting a curve to an equation for a single exponential decay containing a linear phase. The fitted value of the linear phase was taken as the steady-state rate. The steady-state rates were fitted to the Michaelis equation describing competitive inhibition by non-linear methods. Data resulting from tight-binding inhibition was analyzed, and Ki,app determined by fitting the data to the tight-binding equation of Morrison See (Biochem. Biophys. Acta, vol. 185, pp. 269-286 (1969)) by non-linear methods.
# Coll3 = Coll3 (Homo sapiens, UniProt P45452); experiment: MCA fluorogenic enzyme assay, competitive inhibition analysis (Ki,app), Coll3; settings: MCA peptide substrate, 37° C., pH 7.5, read-out: Enzyme Inhibition Constants (K1) Coll3
# stromelysin (HSLN) = stromelysin (HSLN) (Homo sapiens, UniProt P08254); experiment: MCA fluorogenic enzyme assay, competitive inhibition analysis (Ki,app), stromelysin
# HFC = molecular target: T2, HFC (Homo sapiens, UniProt P03956); experiment: MCA fluorogenic enzyme assay, competitive inhibition analysis (Ki,app), HFC; settings: MCA peptide substrate, 37° C., pH 7.5, read-out: Enzyme Inhibition Constants (K1) HFC
# T2 sequence (P03956 100-469): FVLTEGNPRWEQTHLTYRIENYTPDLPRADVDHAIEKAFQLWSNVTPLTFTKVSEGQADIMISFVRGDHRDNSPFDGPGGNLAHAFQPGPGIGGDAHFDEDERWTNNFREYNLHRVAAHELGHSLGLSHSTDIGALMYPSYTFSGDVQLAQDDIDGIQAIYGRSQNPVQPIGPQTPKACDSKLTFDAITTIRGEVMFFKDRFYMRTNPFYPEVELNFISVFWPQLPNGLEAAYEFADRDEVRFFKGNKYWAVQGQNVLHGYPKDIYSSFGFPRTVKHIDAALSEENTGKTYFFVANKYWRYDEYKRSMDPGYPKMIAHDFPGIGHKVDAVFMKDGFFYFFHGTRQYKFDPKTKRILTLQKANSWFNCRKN
# gelatinase A (HG72kD) = molecular target: T3, gelatinase A (HG72kD) (Homo sapiens, UniProt P08253); experiment: MCA fluorogenic enzyme assay, competitive inhibition analysis (Ki,app), gelatinase A; settings: MCA peptide substrate, 37° C., pH 7.5, read-out: Enzyme Inhibition Constants (K1) HG72kD
# T3 sequence (P08253 110-660): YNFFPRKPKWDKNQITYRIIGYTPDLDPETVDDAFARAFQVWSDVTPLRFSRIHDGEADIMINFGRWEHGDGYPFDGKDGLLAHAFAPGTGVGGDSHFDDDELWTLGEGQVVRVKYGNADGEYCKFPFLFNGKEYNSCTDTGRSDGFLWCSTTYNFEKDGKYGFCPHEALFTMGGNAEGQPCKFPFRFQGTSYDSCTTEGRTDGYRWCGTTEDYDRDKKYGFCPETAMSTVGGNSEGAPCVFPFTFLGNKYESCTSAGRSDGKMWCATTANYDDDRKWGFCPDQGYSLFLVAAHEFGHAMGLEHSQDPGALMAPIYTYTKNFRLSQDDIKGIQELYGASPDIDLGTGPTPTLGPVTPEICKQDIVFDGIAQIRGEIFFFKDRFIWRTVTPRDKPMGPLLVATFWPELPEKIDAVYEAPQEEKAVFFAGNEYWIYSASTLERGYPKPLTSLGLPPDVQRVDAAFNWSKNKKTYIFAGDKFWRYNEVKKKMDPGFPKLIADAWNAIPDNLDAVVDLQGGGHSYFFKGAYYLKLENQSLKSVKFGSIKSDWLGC
# [1] = Ki,app, MCA peptide substrate, 37° C., pH 7.5, read-out: Enzyme Inhibition Constants (K1) HSLN
# Sequence of stromelysin (HSLN) (P08254 100-477): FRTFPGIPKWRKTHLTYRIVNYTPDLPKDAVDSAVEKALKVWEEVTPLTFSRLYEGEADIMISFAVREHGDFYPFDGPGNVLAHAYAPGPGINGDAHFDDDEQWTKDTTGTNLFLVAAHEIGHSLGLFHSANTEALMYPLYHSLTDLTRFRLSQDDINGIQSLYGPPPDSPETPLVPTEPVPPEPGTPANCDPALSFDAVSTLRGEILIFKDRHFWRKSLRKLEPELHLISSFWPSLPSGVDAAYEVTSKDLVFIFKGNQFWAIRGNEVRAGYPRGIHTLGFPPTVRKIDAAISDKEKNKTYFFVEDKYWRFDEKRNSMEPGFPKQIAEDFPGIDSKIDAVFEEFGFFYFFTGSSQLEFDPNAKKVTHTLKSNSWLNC
Compound,Ki (matrilysin (Matr.)),Ki (Coll3),Ki (stromelysin (HSLN); [1]),Ki (HFC),Ki (gelatinase A (HG72kD)),Ki (stromelysin (HSLN))
"CC(C)(C)OC(=O)N1CCN(S(=O)(=O)c2ccc(Oc3ccccn3)cc2)C(C(=O)NO)C1 (racemic) [Example 9(d), 2(R/S)-N-hydroxy-1-(4-(pyrid-2-yl)oxybenzenesulfonyl)-4-(t-butoxycarbonyl)-piperazine-2-carboxamide]",2850 nM,1.64 nM,17 nM,550 nM,0.716 nM,
"CN1CCN(S(=O)(=O)c2ccc(Oc3ccc(Cl)cc3)cc2)[C@@H](C(=O)NO)C1 [Example 11(a), 2(R)-N-hydroxy-1-(4-(4-chlorophenoxy)benzenesulfonyl)-4-methyl-piperazine-2-carboxamide hydrochloride]",993 nM,0.02 nM,0.67 nM,130 nM,0.025 nM,
"CC1(C)[C@H](C(=O)NO)N(S(=O)(=O)c2ccc(Oc3ccc(Br)cc3)cc2)CC[S@@+]1[O-] [Example 17(a), 1(R),3(S)-N-hydroxy-4-(4-(4-bromophenoxy)benzenesulfonyl)-2,2-dimethyl-1-oxo-tetrahydro-2H-1,4-thiazine-3-carboxamide]",11 nM,0.01 nM,0.056 nM,3.6 nM,0.009 nM,
"O=C(NO)C1C[S+]([O-])CCN1S(=O)(=O)c1ccc(Oc2ccc(F)cc2)cc1 (racemic) [Example 14(b), 1(R/S),3(R/S)-N-hydroxy-1-oxo-4-(4-(4-fluorophenoxy)benzene-sulfonyl)-tetrahydro-2H-1,4-thiazine-3-carboxamide]",306 nM,0.016 nM,0.79 nM,28 nM,0.034 nM,
"O=C1C[C@H](C(=O)NO)N(S(=O)(=O)c2ccc(Oc3ccccc3)cc2)CN1 [Example 15(a), 6(R)-(N-hydroxycarbamoyl)-1-(4-phenoxy)benzenesulfonyl-tetrahydropyrimidin-4-one]",1300 nM,0.124 nM,4.6 nM,210 nM,0.057 nM,
"O=C(NO)[C@H]1CNCCN1S(=O)(=O)c1ccc(Oc2ccc(F)cc2)cc1 [Example 10(b), 2(R)-N-hydroxy-1-(4-(4-fluorophenoxy)benzenesulfonyl)-piperazine-2-carboxamide hydrochloride]",365 nM,0.257 nM,0.98 nM,44 nM,0.232 nM,
"CC1(C)SCCN(S(=O)(=O)c2ccc(Oc3ccc(Br)cc3)cc2)[C@H]1C(=O)NO [Example 16(a), 3(S)-N-hydroxy-4-(4-(4-bromophenoxy)benzenesulfonyl)-2,2-dimethyl-tetrahydro-2H-1,4-thiazine-3-carboxamide]",2.8 nM,0.001 nM,0.017 nM,0.56 nM,0.003 nM,
"Cn1cnc(S(=O)(=O)N2CCN(S(=O)(=O)c3ccc(Oc4ccc(Cl)cc4)cc3)[C@@H](C(=O)NO)C2)c1 [Example 12(d), 2 (R)-N-hydroxy-1-(4-(4-chlorophenoxy)benzenesulfonyl)-4-(1-methylimidazole-4-sulfonyl)-piperazine-2-carboxamide]",40 nM,0.006 nM,0.09 nM,7 nM,0.004 nM,
"CC1(C)SCCN(S(=O)(=O)c2ccc(Oc3ccccn3)cc2)[C@H]1C(=O)NO [Example 18(b), 3(S)-N-hydroxy-4-(4-((pyrid-2-yl)oxy)benzenesulfonyl)-2,2-dimethyl-tetrahydro-2H-1,4-thiazine-3-carboxamide]",70 nM,0.074 nM,,12 nM,0.202 nM,0.51 nM
CS(=O)(=O)N1CCN(S(=O)(=O)c2ccc(Oc3ccc(F)cc3)cc2)[C@@H](C(=O)NO)C1 [Example 12(b)],52 nM,0.005 nM,0.13 nM,4.7 nM,0.007 nM,
"O=C(NO)[C@@H]1C[S@+]([O-])CCN1S(=O)(=O)c1ccc(Oc2ccc(Br)cc2)cc1 (racemic) [Example 14(a), 1(R/S),3(R/S)-N-hydroxy-1-oxo-4-(4-(4-bromophenoxy)benzene-sulfonyl)-tetrahydro-2H-1,4-thiazine-3-carboxamide]",109 nM,0.017 nM,0.41 nM,23 nM,0.013 nM,
"O=C(NO)[C@H]1CNCCN1S(=O)(=O)c1ccc(Oc2ccc(Cl)cc2)cc1 [Example 10(a), 2(R)-N-hydroxy-1-(4-(4-chlorophenoxy)benzenesulfonyl)-piperazine-2-carboxamide hydrochloride]",171 nM,0.363 nM,1 nM,34 nM,0.413 nM,
"CC(C)(C)OC(=O)N1CCN(S(=O)(=O)c2ccc(Oc3ccc(C#N)cc3)cc2)C(C(=O)NO)C1 (racemic) [Example 9(c), 2(R/S)-N-hydroxy-1-(4-(4-cyanophenoxy)benzenesulfonyl)-4-(t-butoxycarbonyl)-piperazine-2-carboxamide]",3570 nM,1.97 nM,14 nM,580 nM,0.696 nM,
"3(S)-4-(4-(4-(furan-3-yl)phenoxy)benzenesulfonyl-N-hydroxy-tetrahydro-2H-1,4-thiazine-3-carboxamide [Example 20]",0.7 nM,0.002 nM,0.06 nM,1.4 nM,0.0017 nM,
"CC1(C)SCCN(S(=O)(=O)c2ccc(Oc3ccc(Cl)cc3)cc2)[C@H]1C(=O)NO [Example 3(b), 3(S)-N-hydroxy4-(4-(4-chlorophenoxy)benzenesulfonyl)-2,2-dimethyl-tetrahydro-2H-1,4-thiazine-3-carboxamide]",,0.001 nM,0.059 nM,1.3 nM,0.017 nM,
"O=C(NO)C1CSCCN1S(=O)(=O)c1ccc(Oc2ccc(F)cc2)cc1 (racemic) [Example 13(c), 3(R/S)-N-hydroxy-4-(4-(4-fluorophenoxy)benzenesulfonyl)-tetrahydro-2H-1,4-thiazine-3-carboxamide]",313 nM,0.035 nM,0.53 nM,40 nM,0.028 nM,
